This assay has as its target T1, SIRT1 (Homo sapiens, UniProt Q96EB6).
T1 sequence (Q96EB6 1-747): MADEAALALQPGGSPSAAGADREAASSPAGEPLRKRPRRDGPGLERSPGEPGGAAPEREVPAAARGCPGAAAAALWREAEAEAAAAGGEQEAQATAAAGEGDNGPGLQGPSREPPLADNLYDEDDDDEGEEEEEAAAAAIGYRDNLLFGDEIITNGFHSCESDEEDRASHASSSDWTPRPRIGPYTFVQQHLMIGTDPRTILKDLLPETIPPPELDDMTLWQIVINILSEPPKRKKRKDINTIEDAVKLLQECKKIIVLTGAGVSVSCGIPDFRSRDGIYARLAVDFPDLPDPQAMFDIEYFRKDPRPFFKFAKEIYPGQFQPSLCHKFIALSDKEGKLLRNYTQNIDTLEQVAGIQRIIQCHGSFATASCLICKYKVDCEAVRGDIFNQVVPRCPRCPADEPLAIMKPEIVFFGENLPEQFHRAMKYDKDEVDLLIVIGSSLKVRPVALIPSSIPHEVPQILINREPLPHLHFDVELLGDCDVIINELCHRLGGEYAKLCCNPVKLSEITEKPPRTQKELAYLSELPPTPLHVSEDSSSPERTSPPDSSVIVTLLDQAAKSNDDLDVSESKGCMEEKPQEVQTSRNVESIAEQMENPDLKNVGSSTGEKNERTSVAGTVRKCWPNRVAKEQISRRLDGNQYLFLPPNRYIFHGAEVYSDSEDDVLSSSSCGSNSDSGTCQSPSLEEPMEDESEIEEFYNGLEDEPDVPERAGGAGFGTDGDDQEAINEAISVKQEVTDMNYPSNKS
Put plainly: mass spectrometry based SIRT1 deacetylation assay (activation). In kind it is biochemical. To be noted: 0.5 μM peptide substrate, 120 μM βNAD+, 10 nM SIRT1, 25 min at 25° C.; for EC1.5 (concentration of test compound that results in 150% activation of SIRT1): NA = not active in the assay; for Emax: read-out: % FOLD ACT. (percent maximum fold activation of SIRT1).

Here are results for 41 molecules from patent publication US8268862B2, “Sirtuin modulating compounds” (Sirtris Pharmaceuticals, Inc., priority 2007, dated 2012).

On to `O=C1CN(Cc2cnc3sc(-c4ccccc4NC(=O)c4ccc5ccccc5n4)nc3c2)CCN1` [Compound 103], for which the “EC1.5 (concentration of test compound that results in 150% activation of SIRT1)” value is recorded as 230 NM and the Emax is 273%.
For `O=C(Nc1ccccc1-c1nc2cc(CN3CC[C@@H](O)C3)cnc2s1)c1ccc2ccccc2n1` [Compound 104], the “EC1.5 (concentration of test compound that results in 150% activation of SIRT1)” value came out at 200 NM and the Emax was determined as 221%.
`COc1cc(C(=O)Nc2ccccc2-c2nc3cc(CN4CCOCC4)cnc3s2)nc2ccccc12` [Compound 105]: the “EC1.5 (concentration of test compound that results in 150% activation of SIRT1)” value is 1590 NM and the Emax is 292%.
Consider `O=C(Nc1ccccc1-c1nc2cc(CN3CCOCC3)cnc2s1)c1cnc2ccccc2c1` [Compound 106], for which the “EC1.5 (concentration of test compound that results in 150% activation of SIRT1)” value came out at 69840 NM and the Emax was found to be 189%.
On to `O=C(Nc1ccccc1-c1nc2cc(CN3CCOCC3)cnc2s1)c1ccc2cccnc2n1` [Compound 107], for which the “EC1.5 (concentration of test compound that results in 150% activation of SIRT1)” value was 500 NM and the Emax is 219%.
The corresponding values for `O=C(Nc1ccccc1-c1nc2cc(CN3CCSCC3)cnc2s1)c1ccc2ccccc2n1` [Compound 108] are 1060 NM and 178%.
Regarding `N[C@@H]1CCN(Cc2cnc3sc(-c4ccccc4NC(=O)c4ccc5ccccc5n4)nc3c2)C1` [Compound 109], the “EC1.5 (concentration of test compound that results in 150% activation of SIRT1)” value is given as 270 NM and the Emax was greater than 500%.
Take `O=C(Nc1ccccc1-c1nc2cc(CN3CC[C@H](O)C3)cnc2s1)c1ccc2ccccc2n1` [Compound 110]: the “EC1.5 (concentration of test compound that results in 150% activation of SIRT1)” value came to 230 NM and the Emax worked out at 307%.
As for `O=C(Nc1ccccc1-c1nc2cc(CN3CCOCC3)cnc2s1)c1cn2ccccc2n1` [Compound 111], the “EC1.5 (concentration of test compound that results in 150% activation of SIRT1)” value is 1610 NM and the Emax is 427%.
As for `O=C(Nc1ccccc1-c1nc2cc(CN3CCOCC3)cnc2s1)c1cn2cccnc2n1` [Compound 112], the “EC1.5 (concentration of test compound that results in 150% activation of SIRT1)” value is 2330 NM and the Emax came to 375%.
Regarding `O=C(Nc1ccccc1-c1nc2cc(CN3CC[C@@H](F)C3)cnc2s1)c1ccc2ccccc2n1` [Compound 113], the “EC1.5 (concentration of test compound that results in 150% activation of SIRT1)” value is listed as 370 NM and the Emax was 232%.
Turning to `O=C(Nc1ccccc1-c1nc2cc(CN3CCC(F)CC3)cnc2s1)c1ccc2ccccc2n1` [Compound 114], the Emax is 146%.
In the case of `NC1CCN(Cc2cnc3sc(-c4ccccc4NC(=O)c4ccc5ccccc5n4)nc3c2)CC1` [Compound 115], the “EC1.5 (concentration of test compound that results in 150% activation of SIRT1)” value was 620 NM and the Emax was greater than 500%.
As for `O=C(Nc1ccccc1-c1nc2cc(CNC3CCNCC3)cnc2s1)c1ccc2ccccc2n1` [Compound 116], the “EC1.5 (concentration of test compound that results in 150% activation of SIRT1)” value was 270 NM and the Emax is greater than 500%.
On to `O=C(Nc1ccccc1-c1nc2cc(CN[C@H]3CC[C@H](O)CC3)cnc2s1)c1ccc2ccccc2n1` [Compound 117], for which the “EC1.5 (concentration of test compound that results in 150% activation of SIRT1)” value is recorded as 480 NM and the Emax came to 324%.
`O=C(Nc1ccccc1-c1nc2cc(CN3CCCC(F)(F)C3)cnc2s1)c1ccc2ccccc2n1` [Compound 118]: the Emax amounted to 100%.
On to `N[C@@H]1CCN(Cc2cnc3sc(-c4ccccc4NC(=O)c4ccc5ccccc5n4)nc3c2)C1` [Compound 119], for which the “% FOLD ACT. (percent maximum fold activation of SIRT1)” value is greater than 500% and the “EC1.5 (concentration of test compound that results in 150% activation of SIRT1)” value stood at 390 NM.
Turning to `O=C(Nc1ccccc1-c1nc2cc(CN[C@H]3CCNC3)cnc2s1)c1ccc2ccccc2n1` [Compound 120], the “EC1.5 (concentration of test compound that results in 150% activation of SIRT1)” value came out at 820 NM and the Emax was greater than 500%.
`O=C(Nc1ccccc1-c1nc2cc(CN[C@@H]3CCC[C@H]3O)cnc2s1)c1ccc2ccccc2n1` [Compound 121]: the “EC1.5 (concentration of test compound that results in 150% activation of SIRT1)” value is reported as 750 NM and the Emax is 291%.
As to `O=C(Nc1ccccc1-c1nc2cc(CN3CCNCC3)cnc2s1)c1cn2ccccc2n1` [Compound 123], the “EC1.5 (concentration of test compound that results in 150% activation of SIRT1)” value stood at 1940 NM and the Emax is 400%.
Consider `O=C(Nc1ccccc1-c1nc2cc(CN3CCNCC3)cnc2s1)c1cn2cc(F)ccc2n1` [Compound 124], for which the “EC1.5 (concentration of test compound that results in 150% activation of SIRT1)” value turned out to be 1060 NM and the Emax was 314%.
For `O=C(Nc1ccccc1-c1nc2cc(CN3CCNCC3)cnc2s1)c1cn2cc(Cl)ccc2n1` [Compound 125], the Emax came out at 437%.
`O=C(Nc1ccccc1-c1nc2cc(CN3CCNCC3)cnc2s1)c1nc2ccc(F)cc2o1` [Compound 126]: the Emax was determined as 100%.
`O=C(Nc1ccccc1-c1nc2cc(CN3CCOCC3)cnc2s1)c1cn2cc(Cl)ccc2n1` [Compound 127]: the Emax was 143%.
On to `O=C(Nc1ccccc1-c1nc2cc(CN3CCOCC3)cnc2s1)c1cn2cc(F)ccc2n1` [Compound 128], for which the “EC1.5 (concentration of test compound that results in 150% activation of SIRT1)” value was found to be 1310 NM and the Emax is 227%.
On to `O=C(Nc1ccccc1-c1nc2cc(CN3CC[C@@H](F)C3)cnc2s1)c1cn2cc(C(F)(F)F)ccc2n1` [Compound 129], for which the Emax was found to be 100%.
Consider `COCCN1CCN(Cc2cnc3sc(-c4ccccc4NC(=O)c4cnc5ccccc5n4)nc3c2)CC1` [Compound 130], for which the “EC1.5 (concentration of test compound that results in 150% activation of SIRT1)” value is 990 NM and the Emax came to 161%.
`COCCN1CCN(Cc2cnc3sc(-c4ccccc4NC(=O)c4cc(C)nc(-c5ccccc5)n4)nc3c2)CC1` [Compound 131]: the “EC1.5 (concentration of test compound that results in 150% activation of SIRT1)” value was 106 NM and the Emax was 500%.
Take `Cc1cc(C(=O)Nc2ccccc2-c2nc3cc(CN4CCOCC4)cnc3s2)nc(-c2ccccc2)n1` [Compound 132]: the “EC1.5 (concentration of test compound that results in 150% activation of SIRT1)” value came to 215 NM and the Emax was 500%.
As for `COCCN1CCN(Cc2cnc3sc(-c4ccccc4NC(=O)c4cccc(-c5ccccc5Cl)n4)nc3c2)CC1` [Compound 133], the “EC1.5 (concentration of test compound that results in 150% activation of SIRT1)” value stood at 90 NM and the Emax is 500%.
As to `COCCN1CCN(Cc2cnc3sc(-c4ccccc4NC(=O)c4cccc(-c5ccccc5F)n4)nc3c2)CC1` [Compound 134], the “EC1.5 (concentration of test compound that results in 150% activation of SIRT1)” value came out at 69 NM and the Emax was 500%.
The corresponding values for `Cc1cc(C(=O)Nc2ccccc2-c2nc3cc(CN4CCCC4)cnc3s2)nc(-c2ccccc2)n1` [Compound 135] are 759 NM and 274%.
For the molecule `COCCN1CCN(Cc2cnc3sc(-c4ccccc4NC(=O)c4cccc(-c5ccc(C(F)(F)F)cc5)n4)nc3c2)CC1` [Compound 136], the “EC1.5 (concentration of test compound that results in 150% activation of SIRT1)” value was found to be 448 NM and the Emax came out at 461%.
Regarding `COCCN1CCN(Cc2cnc3sc(-c4ccccc4NC(=O)c4cccc(-c5ccc(Cl)cc5)n4)nc3c2)CC1` [Compound 137], the “EC1.5 (concentration of test compound that results in 150% activation of SIRT1)” value was 214 NM and the Emax is 448%.
As to `COCCN1CCN(Cc2cnc3sc(-c4ccccc4NC(=O)c4cccc(-c5cccc(Cl)c5)n4)nc3c2)CC1` [Compound 138], the “EC1.5 (concentration of test compound that results in 150% activation of SIRT1)” value stood at 88 NM and the Emax was found to be 497%.
Consider `COCCN1CCN(Cc2cnc3sc(-c4ccccc4NC(=O)c4cccc(-c5ccccc5C(F)(F)F)n4)nc3c2)CC1` [Compound 139], for which the “EC1.5 (concentration of test compound that results in 150% activation of SIRT1)” value came out at 230 NM and the Emax is 457%.
In the case of `COCCN1CCN(Cc2cnc3sc(-c4ccccc4NC(=O)c4cccc(-c5cccc(C(F)(F)F)c5)n4)nc3c2)CC1` [Compound 140], the “EC1.5 (concentration of test compound that results in 150% activation of SIRT1)” value amounted to 41 NM and the Emax worked out at 500%.
As for `COCCN1CCN(Cc2cnc3sc(-c4ccccc4NC(=O)c4cccc(-c5ccc(F)cc5)n4)nc3c2)CC1` [Compound 141], the “EC1.5 (concentration of test compound that results in 150% activation of SIRT1)” value is 127 NM and the Emax came to 487%.
For the molecule `COCCN1CCN(Cc2cnc3sc(-c4ccccc4NC(=O)c4cccc(-c5ccc(F)cc5F)n4)nc3c2)CC1` [Compound 142], the “EC1.5 (concentration of test compound that results in 150% activation of SIRT1)” value was determined as 394 NM and the Emax is 378%.
Take `COCCN1CCN(Cc2cnc3sc(-c4ccccc4NC(=O)c4cccc(-c5ccccc5C#N)n4)nc3c2)CC1` [Compound 143]: the “EC1.5 (concentration of test compound that results in 150% activation of SIRT1)” value is given as 2121 NM and the Emax is 372%.
Take `COCCN1CCN(Cc2cnc3sc(-c4ccccc4NC(=O)c4cccc(-c5ccc(C#N)cc5)n4)nc3c2)CC1` [Compound 144]: the “EC1.5 (concentration of test compound that results in 150% activation of SIRT1)” value turned out to be 559 NM and the Emax is 402%.
